Like-named read-outs stand apart in the source and are kept apart here.
Tests used:
[1] = Stability Test-1: coloration of 1% aqueous solutions adjusted to pH 7 stored at 50° C.; format: physicochemical; conditions: 1% aqueous solution pH 7, 50° C., 10 panelists
Procedure: (§1) For each of the samples of Synthesis Examples 1 to 6, 1% aqueous solutions were adjusted to pH 3, 5, 7, 8, and 9 with a dilute potassium hydroxide aqueous solution, and then placed in 50 mL screw tubes and sealed. […] Furthermore, the odor and coloration of the samples adjusted to pH 7 were evaluated based on the following methods and criteria, and the results are shown in Table 11.
• Evaluation was made by 10 panelists according to the following criteria. • 3: Almost no change compared to immediately after preparation. • 2: Color changes compared to immediately after preparation. • 1: Strongly colored compared to immediately after preparation. • Based on the results of the above evaluation, the following classification was made: […]

[2] = Stability Test-1: residual rate of 1% aqueous solutions stored at 50° C. (HPLC); format: physicochemical; conditions: water, 1% aqueous solution; for remaining at 336 h: after 2 weeks, read-out: Residual Rate; for remaining at 672 h: after 4 weeks
Procedure: as §1
• ⊚: 80% or more • ◯: 50% or more, less than 80% • Δ: 30% or more, less than 50% • x: Less than 30%

[3] = test system: Normal human dermal fibroblasts (NHDF); experiment: Hyaluronic acid production promoting effect (ELISA of hyaluronic acid in supernatant); format: cell-based; conditions: 10 mM or less, 48 hours, control group set to 100%, N=3
Procedure: Normal human dermal fibroblasts (NHDF) were prepared in D-MEM containing 5% (v/v) fetal bovine serum to a cell density of 2.5×10^4 cells/well, and then pre-incubated on a 96-well plate for 24 hours. After removing the medium, samples prepared in serum-free D-MEM were added to each well and cultured for 48 hours. After the culture was completed, the amount of hyaluronic acid in the supernatant was quantified by ELISA. Measurements were performed in triplicate (N=3).
The amount of hyaluronic acid produced when the sample was measured at a concentration of 10 mM or less was compared with that of the control group, and the results (% values when the control group is set to 100%) are shown in Tables 18 to 20 based on the following criteria.

[4] = test system: Normal human dermal fibroblasts; experiment: Collagen production promoting effect (ELISA of free collagen in supernatant); format: cell-based; conditions: 10 mM or less, 48 hours, control group set to 100%, N=3
Procedure: Normal human dermal fibroblasts were prepared in D-MEM containing 5% (v/v) fetal bovine serum to a cell density of 2.5×10^4 cells/well, and then pre-incubated for 24 hours on a 96-well plate. After removing the medium, samples prepared to a predetermined concentration in D-MEM containing 5% (v/v) fetal bovine serum were added to each well and cultured for 48 hours. After the culture was completed, the amount of free collagen in the supernatant was quantified by ELISA. Measurements were performed in triplicate (N=3).
The amount of collagen produced when the sample was measured at a concentration of 10 mM or less was compared with that of the control group, and the results (% values when the control group was set to 100%) are shown in Table 17 based on the following criteria.

[5] = Stability Test-1: odor of 1% aqueous solutions adjusted to pH 7 stored at 50° C.; format: physicochemical; conditions: 1% aqueous solution pH 7, 50° C., 10 panelists
Procedure: as §1
(§2) • Evaluation was made by 10 panelists according to the following criteria. • 3: Almost odorless. • 2: There is a slight strange odor. • 1: A strong odor is detected. • Based on the results of the above evaluation, the following classification was made: • ◯: Total score of 10 panelists is 25 or more • Δ: Total score of 10 panelists is 16-24 • x: The total score of 10 panelists is 15 or less

[6] = Stability Test-2: residual rate in cream of pH 7 or 9 stored at 50° C.; format: physicochemical
Procedure: (§3) For each of the samples of Synthesis Examples 9 to 32, (a) and (b) shown in Table 12 were each heated and mixed. After cooling, (c) shown in Table 12 was added to prepare a cream with a pH of 7 or 9. […] The odor and coloration were also evaluated according to the same method and criteria as in Test Example 1. The results regarding the residual rate are shown in Tables 13 and 14, and the results regarding the odor and coloration are shown in Tables 15 and 16.

[7] = Stability Test-2: odor of cream stored at 50° C.; format: physicochemical; conditions: 10 panelists
Excerpt: as §2, §3

[8] = Stability Test-2: coloration of cream stored at 50° C.; format: physicochemical; conditions: 10 panelists
Excerpt: • Evaluation was made by 10 panelists according to the following criteria. • 3: Almost no change compared to immediately after preparation. • 2: Color changes compared to immediately after preparation. • 1: Strongly colored compared to immediately after preparation. • Based on the results of the above evaluation, the following classification was made:
as §3

[9] = cream pH 7, 50° C., after 2 weeks, 20160 min
[10] = cream pH 7, 50° C., after 4 weeks, 40320 min
[11] = cream pH 9, 50° C., after 2 weeks, 20160 min
[12] = cream pH 9, 50° C., after 4 weeks, 40320 min

Row | remaining at 336 h ([2]; pH 3, 50° C.) | remaining at 672 h ([2]; pH 3, 50° C.) | remaining at 336 h ([2]; pH 5, 50° C.) | remaining at 672 h ([2]; pH 5, 50° C.) | remaining at 336 h ([2]; pH 7, 50° C.) | remaining at 672 h ([2]; pH 7, 50° C.) | remaining at 336 h ([2]; pH 8, 50° C.) | remaining at 672 h ([2]; pH 8, 50° C.) | Residual Rate [6, 9] | Residual Rate [6, 10] | Residual Rate [6, 11] | Residual Rate [6, 12] | Odor ([7]; after 4 weeks) | SMILES | Coloration ([1]; after 2 weeks) | Coloration ([1]; after 4 weeks) | Hyaluronic acid production-promoting effect [3] | Collagen production-promoting effect [4] | Odor ([7]; after 2 weeks) | Coloration ([8]; after 2 weeks) | Coloration ([8]; after 4 weeks) | also measured
1 | ≥ 80% | ≥ 80% | ≥ 80% | ≥ 80% | ≥ 80% | ≥ 80% | ≥ 80% | 50 to 80% |  |  |  |  |  | O=C1OC(C(O)CO)C2=C1OCCCO2 (stereo not drawn) [Synthesis Example 2, 2,3-O-(1,3-propanediyl) ascorbic acid] | ∘ (Total score of 10 panelists is 25 or more) | ∘ (Total score of 10 panelists is 25 or more) | ++ (120%<) | ++ (140%<) |  |  |  | remaining at 336 h ([2]; pH 9, 50° C.): 50 to 80%; remaining at 672 h ([2]; pH 9, 50° C.): 30 to 50%; Odor ([5]; after 2 weeks): ∘ (Total score of 10 panelists is 25 or more); Odor ([5]; after 4 weeks): Δ (Total score of 10 panelists is 16-24)
2 | ≥ 80% | ≥ 80% | ≥ 80% | ≥ 80% | 50 to 80% | 50 to 80% | 50 to 80% | 30 to 50% |  |  |  |  |  | O=C1OC(C(O)CO)C2=C1OCC(O)CO2 (stereo not drawn) [Synthesis Example 4, 2,3-O-(2-hydroxypropane-1,3-diyl) ascorbic acid] | ∘ (Total score of 10 panelists is 25 or more) | ∘ (Total score of 10 panelists is 25 or more) | ++ (120%<) |  |  |  |  | remaining at 336 h ([2]; pH 9, 50° C.): 50 to 80%; remaining at 672 h ([2]; pH 9, 50° C.): 30 to 50%; Odor ([5]; after 2 weeks): ∘ (Total score of 10 panelists is 25 or more); Odor ([5]; after 4 weeks): ∘ (Total score of 10 panelists is 25 or more)
3 | ≥ 80% | ≥ 80% | ≥ 80% | ≥ 80% | 50 to 80% | 50 to 80% | 50 to 80% | 30 to 50% |  |  |  |  |  | O=C1OC(C(O)CO)C2=C1OCC1(COC1)CO2 (stereo not drawn) [Synthesis Example 6, 2,3-O-(3,3-dimethyleneoxetane) ascorbic acid] | ∘ (Total score of 10 panelists is 25 or more) | ∘ (Total score of 10 panelists is 25 or more) | ++ (120%<) | ++ (140%<) |  |  |  | remaining at 336 h ([2]; pH 9, 50° C.): 50 to 80%; remaining at 672 h ([2]; pH 9, 50° C.): 30 to 50%; Odor ([5]; after 2 weeks): ∘ (Total score of 10 panelists is 25 or more); Odor ([5]; after 4 weeks): ∘ (Total score of 10 panelists is 25 or more)
4 |  |  |  |  |  |  |  |  | ⊚ (95% or more) | ⊚ (95% or more) | ⊚ (95% or more) | ⊚ (95% or more) | Δ (Total score of 10 panelists is 16-24) | CCCCCCCC(=O)OCC(OC(=O)CCCCCCC)C1OC(=O)C2=C1OCCCCO2 (stereo not drawn) [Synthesis Example 12, 5,6-O-dioctanoyl-2,3-O-(1,4-butanediyl) ascorbic acid] |  |  | ++ (120%<) | ++ (140%<) | ◯ (Total score of 10 panelists is 25 or more) | ◯ (Total score of 10 panelists is 25 or more) | ◯ (Total score of 10 panelists is 25 or more) | 
5 |  |  |  |  |  |  |  |  | ⊚ (95% or more) | ⊚ (95% or more) | ⊚ (95% or more) | ⊚ (95% or more) | Δ (Total score of 10 panelists is 16-24) | CCCCCCCCCCCCCCCC(=O)OCC(O)C1OC(=O)C2=C1OCCCCO2 (stereo not drawn) [Synthesis Example 15, 6-O-palmitoyl-2,3-O-(1,4-butanediyl) ascorbic acid] |  |  | ++ (120%<) | ++ (140%<) | ◯ (Total score of 10 panelists is 25 or more) | ◯ (Total score of 10 panelists is 25 or more) | ◯ (Total score of 10 panelists is 25 or more) | 
6 |  |  |  |  |  |  |  |  | ⊚ (95% or more) | ⊚ (95% or more) | ⊚ (95% or more) | ⊚ (95% or more) | Δ (Total score of 10 panelists is 16-24) | CCCC(=O)OCC(OC(=O)CCC)C1OC(=O)C2=C1OCCCO2 (stereo not drawn) [Synthesis Example 21, 5,6-O-dibutanoyl-2,3-O-(1,3-propanediyl) ascorbic acid] |  |  | ++ (120%<) | ++ (140%<) | ◯ (Total score of 10 panelists is 25 or more) | ◯ (Total score of 10 panelists is 25 or more) | ◯ (Total score of 10 panelists is 25 or more) | 
7 |  |  |  |  |  |  |  |  | ⊚ (95% or more) | ⊚ (95% or more) | ⊚ (95% or more) | ⊚ (95% or more) | Δ (Total score of 10 panelists is 16-24) | CCCCCCCCCCCCCCCC(=O)OCC(OC(=O)CCCCCCCCCCCCCCC)C1OC(=O)C2=C1OCCCO2 (stereo not drawn) [Synthesis Example 27, 5,6-O-dipalmitoyl-2,3-O-(1,3-propanediyl) ascorbic acid] |  |  | ++ (120%<) | ++ (140%<) | ◯ (Total score of 10 panelists is 25 or more) | ◯ (Total score of 10 panelists is 25 or more) | Δ (Total score of 10 panelists is 16-24) | 
8 |  |  |  |  |  |  |  |  | ⊚ (95% or more) | ⊚ (95% or more) | ⊚ (95% or more) | ⊚ (95% or more) | Δ (Total score of 10 panelists is 16-24) | CC(C)CCCCCCCCCCCCCCC(=O)OCC(OC(=O)CCCCCCCCCCCCCCC(C)C)C1OC(=O)C2=C1OCCCO2 (stereo not drawn) [Synthesis Example 29, 5,6-O-diisostearoyl-2,3-O-(1,3-propanediyl) ascorbic acid] |  |  |  | ++ (140%<) | ◯ (Total score of 10 panelists is 25 or more) | ◯ (Total score of 10 panelists is 25 or more) | ◯ (Total score of 10 panelists is 25 or more) | 
